Assay results from patent publication US12157741B2, “Macrocyclic inhibitors of DYRK1A” (DANA-FARBER CANCER INSTITUTE, INC., priority 2018, dated 2024).
pIC50: −log10 of the molar value. Read-outs that look alike come from different tables or passages of the source.

Assays:
[1] = molecular target: T1, various enzymes (Homo sapiens, UniProt O43283); conditions: LZK; 1 uM
T1 sequence (O43283 1-966): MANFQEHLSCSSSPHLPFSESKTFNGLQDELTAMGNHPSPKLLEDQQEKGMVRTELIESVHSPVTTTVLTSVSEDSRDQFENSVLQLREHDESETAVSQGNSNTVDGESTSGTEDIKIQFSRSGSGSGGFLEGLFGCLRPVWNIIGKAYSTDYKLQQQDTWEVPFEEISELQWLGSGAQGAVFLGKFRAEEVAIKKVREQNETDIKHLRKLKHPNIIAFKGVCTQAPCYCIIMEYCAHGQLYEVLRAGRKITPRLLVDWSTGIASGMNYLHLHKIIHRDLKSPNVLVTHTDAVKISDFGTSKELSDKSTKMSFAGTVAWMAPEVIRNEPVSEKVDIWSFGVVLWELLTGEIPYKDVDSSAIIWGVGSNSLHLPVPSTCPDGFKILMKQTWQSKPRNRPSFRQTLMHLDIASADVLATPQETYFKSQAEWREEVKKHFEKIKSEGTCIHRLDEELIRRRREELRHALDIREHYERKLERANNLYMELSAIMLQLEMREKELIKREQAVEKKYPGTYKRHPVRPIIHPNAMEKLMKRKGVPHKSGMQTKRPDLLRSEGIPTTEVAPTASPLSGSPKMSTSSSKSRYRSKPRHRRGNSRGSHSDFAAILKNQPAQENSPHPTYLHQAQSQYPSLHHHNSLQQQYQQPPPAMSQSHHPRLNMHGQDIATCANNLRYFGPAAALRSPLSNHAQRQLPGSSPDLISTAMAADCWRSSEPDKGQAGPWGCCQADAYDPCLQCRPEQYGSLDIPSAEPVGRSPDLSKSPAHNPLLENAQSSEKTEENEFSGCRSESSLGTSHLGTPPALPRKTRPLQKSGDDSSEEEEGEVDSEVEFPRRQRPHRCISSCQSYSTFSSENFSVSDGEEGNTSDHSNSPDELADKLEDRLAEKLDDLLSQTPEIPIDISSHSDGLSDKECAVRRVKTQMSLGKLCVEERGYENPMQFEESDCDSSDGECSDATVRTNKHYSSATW
Description: (§1) Ambit profiling from Eurofins (formerly Discoverx) was conducted in accordance with the manufacturer's instructions.

[2] = molecular target: various enzymes (Homo sapiens, UniProt P00533); conditions: EGFR; 1 uM
Description: as §1

[3] = molecular target: various enzymes (Homo sapiens, UniProt P19525); conditions: PRKR; 1 uM
various enzymes (Homo sapiens, UniProt P19525), sequence (P19525 whole entry): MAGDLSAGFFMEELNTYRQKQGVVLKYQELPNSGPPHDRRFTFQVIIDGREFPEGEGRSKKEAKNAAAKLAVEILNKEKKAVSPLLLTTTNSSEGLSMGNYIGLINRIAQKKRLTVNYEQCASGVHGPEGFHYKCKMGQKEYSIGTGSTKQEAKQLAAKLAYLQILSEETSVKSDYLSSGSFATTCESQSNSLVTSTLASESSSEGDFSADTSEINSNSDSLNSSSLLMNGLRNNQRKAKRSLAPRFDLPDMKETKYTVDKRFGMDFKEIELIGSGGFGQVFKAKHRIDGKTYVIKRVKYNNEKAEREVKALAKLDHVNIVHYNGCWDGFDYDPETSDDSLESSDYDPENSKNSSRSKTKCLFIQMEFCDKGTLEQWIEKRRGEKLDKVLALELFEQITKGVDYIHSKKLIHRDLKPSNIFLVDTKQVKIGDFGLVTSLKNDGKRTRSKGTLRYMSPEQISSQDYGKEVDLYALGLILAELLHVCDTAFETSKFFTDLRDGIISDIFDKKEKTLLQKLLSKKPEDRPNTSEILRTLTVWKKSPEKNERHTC
Description: as §1

[4] = molecular target: various enzymes (Homo sapiens, UniProt P23458); conditions: 1 uM
various enzymes (Homo sapiens, UniProt P23458), sequence (P23458 whole entry): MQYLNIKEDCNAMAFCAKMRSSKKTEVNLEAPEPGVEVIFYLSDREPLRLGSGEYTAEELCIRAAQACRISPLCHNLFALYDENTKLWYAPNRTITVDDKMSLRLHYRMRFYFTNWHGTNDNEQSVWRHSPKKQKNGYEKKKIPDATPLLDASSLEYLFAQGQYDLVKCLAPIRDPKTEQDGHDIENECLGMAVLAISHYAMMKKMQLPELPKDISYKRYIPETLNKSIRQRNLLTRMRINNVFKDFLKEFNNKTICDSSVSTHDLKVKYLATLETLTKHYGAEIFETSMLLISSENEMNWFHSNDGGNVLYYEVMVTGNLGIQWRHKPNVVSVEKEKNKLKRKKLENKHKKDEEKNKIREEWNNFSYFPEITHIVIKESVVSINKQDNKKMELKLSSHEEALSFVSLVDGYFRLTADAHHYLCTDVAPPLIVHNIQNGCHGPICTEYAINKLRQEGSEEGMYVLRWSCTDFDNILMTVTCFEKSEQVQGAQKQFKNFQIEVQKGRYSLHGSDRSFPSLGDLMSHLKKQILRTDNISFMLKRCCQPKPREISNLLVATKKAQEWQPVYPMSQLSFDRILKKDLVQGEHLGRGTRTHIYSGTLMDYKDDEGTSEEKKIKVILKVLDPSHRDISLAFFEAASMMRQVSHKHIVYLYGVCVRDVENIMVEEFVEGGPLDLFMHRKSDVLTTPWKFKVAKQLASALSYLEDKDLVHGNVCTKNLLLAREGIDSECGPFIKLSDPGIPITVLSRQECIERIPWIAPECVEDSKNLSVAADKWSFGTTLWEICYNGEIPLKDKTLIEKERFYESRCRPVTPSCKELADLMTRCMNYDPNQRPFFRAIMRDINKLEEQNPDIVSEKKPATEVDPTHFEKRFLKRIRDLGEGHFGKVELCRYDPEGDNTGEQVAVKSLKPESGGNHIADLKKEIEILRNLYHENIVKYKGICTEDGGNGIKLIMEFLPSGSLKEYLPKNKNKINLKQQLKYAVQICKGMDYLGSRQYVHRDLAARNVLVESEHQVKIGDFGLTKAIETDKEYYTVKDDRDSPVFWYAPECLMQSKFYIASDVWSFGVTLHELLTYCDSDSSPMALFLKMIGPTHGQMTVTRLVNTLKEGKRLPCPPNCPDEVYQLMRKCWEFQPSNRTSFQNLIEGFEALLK
Description: as §1

[5] = molecular target: T2, various enzymes (Homo sapiens, UniProt P36888); conditions: FLT3(ITD); 1 uM
T2 sequence (P36888 1-993): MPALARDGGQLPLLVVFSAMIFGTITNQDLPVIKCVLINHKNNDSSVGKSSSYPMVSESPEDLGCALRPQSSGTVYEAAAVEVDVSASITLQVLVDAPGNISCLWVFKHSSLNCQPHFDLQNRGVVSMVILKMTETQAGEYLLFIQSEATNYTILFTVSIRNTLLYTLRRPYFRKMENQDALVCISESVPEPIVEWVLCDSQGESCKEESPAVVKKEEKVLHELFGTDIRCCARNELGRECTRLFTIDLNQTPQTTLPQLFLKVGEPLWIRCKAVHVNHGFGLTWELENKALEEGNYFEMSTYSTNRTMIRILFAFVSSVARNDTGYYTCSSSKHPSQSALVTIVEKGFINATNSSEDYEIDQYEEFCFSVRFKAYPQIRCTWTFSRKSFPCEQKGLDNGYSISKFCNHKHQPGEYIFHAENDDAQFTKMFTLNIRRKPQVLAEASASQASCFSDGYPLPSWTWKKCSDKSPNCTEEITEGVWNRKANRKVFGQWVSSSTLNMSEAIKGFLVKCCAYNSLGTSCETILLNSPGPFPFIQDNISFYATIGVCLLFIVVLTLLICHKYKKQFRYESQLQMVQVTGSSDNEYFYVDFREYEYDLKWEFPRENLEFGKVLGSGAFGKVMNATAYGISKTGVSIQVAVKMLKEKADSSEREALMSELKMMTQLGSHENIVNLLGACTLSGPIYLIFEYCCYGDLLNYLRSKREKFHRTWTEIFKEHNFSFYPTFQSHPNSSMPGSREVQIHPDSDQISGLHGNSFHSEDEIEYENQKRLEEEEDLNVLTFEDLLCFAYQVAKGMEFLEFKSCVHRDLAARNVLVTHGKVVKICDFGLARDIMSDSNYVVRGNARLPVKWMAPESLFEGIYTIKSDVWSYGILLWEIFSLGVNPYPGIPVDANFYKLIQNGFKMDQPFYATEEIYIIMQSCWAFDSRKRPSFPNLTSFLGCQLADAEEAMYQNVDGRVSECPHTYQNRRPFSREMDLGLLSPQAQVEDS
Description: as §1

[6] = molecular target: various enzymes (Homo sapiens, UniProt Q16584); conditions: MLK3; 1 uM
various enzymes (Homo sapiens, UniProt Q16584), sequence (Q16584 whole entry): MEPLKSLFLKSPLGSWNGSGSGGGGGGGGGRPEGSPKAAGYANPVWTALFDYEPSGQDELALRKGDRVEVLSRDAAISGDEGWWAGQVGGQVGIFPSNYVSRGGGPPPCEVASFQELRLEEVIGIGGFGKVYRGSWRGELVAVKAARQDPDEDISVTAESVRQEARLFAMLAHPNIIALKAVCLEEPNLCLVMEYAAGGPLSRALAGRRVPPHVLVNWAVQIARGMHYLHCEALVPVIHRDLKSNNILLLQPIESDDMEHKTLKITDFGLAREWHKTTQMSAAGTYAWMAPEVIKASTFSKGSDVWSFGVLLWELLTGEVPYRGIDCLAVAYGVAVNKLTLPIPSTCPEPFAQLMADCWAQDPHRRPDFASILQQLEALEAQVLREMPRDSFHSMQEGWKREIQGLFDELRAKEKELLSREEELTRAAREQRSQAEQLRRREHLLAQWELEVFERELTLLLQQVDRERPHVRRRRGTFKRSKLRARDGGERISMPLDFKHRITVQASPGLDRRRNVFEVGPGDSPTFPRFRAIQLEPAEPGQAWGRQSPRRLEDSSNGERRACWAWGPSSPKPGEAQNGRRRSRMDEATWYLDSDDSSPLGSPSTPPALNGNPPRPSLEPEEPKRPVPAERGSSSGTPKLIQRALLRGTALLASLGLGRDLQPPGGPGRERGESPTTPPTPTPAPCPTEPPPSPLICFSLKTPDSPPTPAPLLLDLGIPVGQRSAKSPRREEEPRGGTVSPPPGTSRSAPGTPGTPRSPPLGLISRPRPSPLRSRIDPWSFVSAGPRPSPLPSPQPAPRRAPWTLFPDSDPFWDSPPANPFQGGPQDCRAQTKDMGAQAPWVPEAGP
Description: as §1

[7] = molecular target: T3, various enzymes (Homo sapiens, UniProt Q9NWZ3); conditions: IRAK4; 1 uM
T3 sequence (Q9NWZ3 1-460): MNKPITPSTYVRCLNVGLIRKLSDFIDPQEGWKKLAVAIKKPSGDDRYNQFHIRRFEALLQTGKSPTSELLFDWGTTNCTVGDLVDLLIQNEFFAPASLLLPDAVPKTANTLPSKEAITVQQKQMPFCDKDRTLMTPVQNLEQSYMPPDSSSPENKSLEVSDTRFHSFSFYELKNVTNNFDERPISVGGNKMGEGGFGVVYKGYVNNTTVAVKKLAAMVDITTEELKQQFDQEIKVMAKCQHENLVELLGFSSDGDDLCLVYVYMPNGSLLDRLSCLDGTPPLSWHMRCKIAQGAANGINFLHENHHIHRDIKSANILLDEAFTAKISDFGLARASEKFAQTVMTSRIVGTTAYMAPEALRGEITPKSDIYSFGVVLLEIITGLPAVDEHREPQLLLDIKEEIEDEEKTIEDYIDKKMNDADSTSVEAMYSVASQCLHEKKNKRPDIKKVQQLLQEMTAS
Description: as §1

[8] = molecular target: various enzymes (Homo sapiens, UniProt P00533, DELINS747-751S); assay type: binding; set-up: other: EGFR(L747-T751del, Sins); 1 uM; other: compound 1 uM; conditions: compound 1 uM
Description: Ambit profiling was conducted in accordance with the manufacturer's instructions.

[9] = molecular target: various enzymes (Homo sapiens, UniProt Q6P2M8); assay: Enzyme IC50 of compound 48 (Table 3); assay type: biochemical; set-up: Enzyme IC50; other: CAMK1B; conditions: CAMK1B
various enzymes (Homo sapiens, UniProt Q6P2M8), sequence (Q6P2M8 whole entry): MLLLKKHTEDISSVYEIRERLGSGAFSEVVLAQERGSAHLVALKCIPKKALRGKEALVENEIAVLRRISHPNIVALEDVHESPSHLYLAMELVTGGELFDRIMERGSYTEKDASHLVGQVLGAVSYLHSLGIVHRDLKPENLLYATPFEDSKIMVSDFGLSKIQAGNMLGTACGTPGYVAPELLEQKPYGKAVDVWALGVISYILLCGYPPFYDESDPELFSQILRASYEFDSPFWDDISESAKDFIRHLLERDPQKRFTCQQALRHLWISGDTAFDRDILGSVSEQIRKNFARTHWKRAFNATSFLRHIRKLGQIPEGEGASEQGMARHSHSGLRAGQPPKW

Structure (SMILES)	Ambit profiling [1]	Ambit profiling [2]	Ambit profiling [3]	Ambit profiling ([4]; JAK1(JH1domain-catalytic))	Ambit profiling ([4]; JAK1(JH2domain-pseudokinase))	Ambit profiling [5]	Ambit profiling [6]	Ambit profiling [7]	Ambit profiling: EGFR(L747-T751del, Sins) [8]	pIC50 [9]
CN1Cc2nn(C)cc2-c2cnc3[nH]cc(c3c2)-c2cnn(c2)CCCC1=O [Compound 41, (Z)-31,5-dimethyl-11H,21H,31H-5-aza-2(3,5)-pyrrolo[2,3-b]pyridina-1(4,1),3(4,3)-dipyrazolacyclononaphan-6-one]	11	86	9.2	18	9.1	0.15	69	12	–	–
CC(C)N1Cc2nn(C)cc2-c2cnc3[nH]cc(c3c2)-c2cn(nc2C(F)(F)F)CCCC1=O [Compound 45, (Z)-5-isopropyl-31-methyl-13-(trifluoromethyl)-11H,21H,31H-5-aza-2(3,5)-pyrrolo[2,3-b]pyridina-1(4,1),3(4,3)-dipyrazolacyclononaphan-6-one]	–	–	–	–	–	–	–	–	31	–
CN1Cc2nn(C)c(C#N)c2-c2cnc3[nH]cc(c3c2)-c2cn(nc2C(F)(F)F)CCCC1=O [Compound 48, (Z)-31,5-dimethyl-6-oxo-13-(trifluoromethyl)-11H,21H,31H-5-aza-2(3,5)-pyrrolo[2,3-b]pyridina-1(4,1),3(4,3)-dipyrazolacyclononaphane-35-carbonitrile]	100	76	100	100	100	21	80	100	–	6.08
COc1c2c(nn1C)CN(C(C)C)C(=O)CCCn1cc(c(C(F)(F)F)n1)-c1c[nH]c3ncc-2cc13 [Compound 50, (Z)-5-isopropyl-35-methoxy-31-methyl-13-(trifluoromethyl)-11H,21H,31H-5-aza-2(3,5)-pyrrolo[2,3-b]pyridina-1(4,1),3(4,3)-dipyrazolacyclononaphan-6-one]	–	–	–	–	–	–	–	–	22	–
